Each structure is given as a SMILES string.

Data on 23 molecules can be found in patent US20250034167A1, “HETEROCYCLIC COMPOUNDS AND METHODS OF USE” (AMGEN INC., priority 2021, published 2025).

For the test, the target named is His-tagged KRAS G12D protein (Homo sapiens, UniProt P01116, G12D). Kind of test: biochemical.
Sequence of His-tagged KRAS G12D protein (P01116 1-188 isoform P01116-2 G12D): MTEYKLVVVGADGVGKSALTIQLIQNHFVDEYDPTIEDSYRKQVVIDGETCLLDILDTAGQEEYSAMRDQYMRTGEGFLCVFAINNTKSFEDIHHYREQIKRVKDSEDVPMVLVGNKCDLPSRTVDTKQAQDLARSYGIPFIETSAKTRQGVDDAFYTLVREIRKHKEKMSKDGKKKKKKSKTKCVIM
Description: The plate was incubated for 30 minutes at room temperature. Biotinylated KRPep-2d substrate (Amgen) was diluted to nM in Assay Buffer and 2 μL was added to all wells and incubated for 1 hour at room temperature. Detection Reagent (0.4 nM LANCE Eu-W1024 Anti-6×His (Perkin Elmer AD0401), 5 nM streptavidin-d2 (Cisbio 610SADLA)) was prepared in Assay Buffer, then 4 µL was added to the plate and incubated for 1 hour at room temperature.
For `CCc1c(F)ccc2cc(O)cc(-c3ncc4c(N5C[C@H]6OCC[C@H]65)nc(OC[C@@]56CCCN5C[C@H](F)C6)nc4c3F)c12` (relative stereo) [Example 21, rel-4-(4-((1R,5R)-2-Oxa-6-azabicyclo[3.2.0]heptan-6-yl)-8-fluoro-2-(((2R,7aS)-2-fluorotetrahydro-1H-pyrrolizin-7a(5H)-yl)methoxy)pyrido[4,3-d]pyrimidin-7-yl)-5-ethyl-6-fluoronaphthalen-2-ol], the IC50 was 32 nM. Molecule `CCc1c(F)ccc2cc(O)cc(-c3ncc4c(N5CC6CNC(=O)C6C5)nc(OC[C@@]56CCCN5C[C@H](F)C6)nc4c3F)c12` (relative stereo) [Example 61, rel-(3aR,6aS)-5-(7-(8-Ethyl-7-fluoro-3-hydroxynaphthalen-1-yl)-8-fluoro-2-(((2R,7aS)-2-fluorotetrahydro-1H-pyrrolizin-7a(5H)-yl)methoxy)pyrido[4,3-d]pyrimidin-4-yl)hexahydropyrrolo[3,4-c]pyrrol-1(2H)-one] displayed an IC50 of 5 nM. For `CCc1c(F)ccc2cc(O)cc(-c3ncc4c(N5CCC6OCCC6C5)nc(OC[C@@]56CCCN5C[C@H](F)C6)nc4c3F)c12` (relative stereo) [Example 62, 5-Ethyl-6-fluoro-4-(8-fluoro-2-(((2R,7aS)-2-fluorotetrahydro-1H-pyrrolizin-7a(5H)-yl)methoxy)-4-rel-((3aR,7aS)-hexahydrofuro[3,2-c]pyridin-5(4H)-yl)pyrido[4,3-d]pyrimidin-7-yl)naphthalen-2-ol], half-maximal inhibition (IC50) was put at 40 nM.

Turning to `CCc1c(F)ccc2cc(O)cc(-c3ncc4c(N5CCC[C@H]6NC(=O)C[C@H]65)nc(OC[C@@]56CCCN5C[C@H](F)C6)nc4c3F)c12` (relative stereo) [Example 63, rel-(3aR,7aR)-4-(7-(8-Ethyl-7-fluoro-3-hydroxynaphthalen-1-yl)-8-fluoro-2-(((2R,7aS)-2-fluorotetrahydro-1H-pyrrolizin-7a(5H)-yl)methoxy)pyrido[4,3-d]pyrimidin-4-yl)octahydro-2H-pyrrolo[3,2-b]pyridin-2-one], the IC50 turned out to be 39 nM.

Regarding `CCc1c(F)ccc2cc(O)cc(-c3ncc4c(N5C[C@@H](C(N)=O)CC[C@H]5C)nc(OC[C@@]56CCCN5C[C@H](F)C6)nc4c3F)c12` (relative stereo) [Example 64, rel-(3S,6R)-1-(7-(8-Ethyl-7-fluoro-3-hydroxynaphthalen-1-yl)-8-fluoro-2-(((2R,7aS)-2-fluorotetrahydro-1H-pyrrolizin-7a(5H)-yl)methoxy)pyrido[4,3-d]pyrimidin-4-yl)-6-methylpiperidine-3-carboxamide], the IC50 amounted to 6 nM. Next, `CCc1c(F)ccc2cc(O)cc(-c3ncc4c(N5CC[C@H]6CNC(=O)[C@H]6C5)nc(OC[C@@]56CCCN5C[C@H](F)C6)nc4c3F)c12` (relative stereo) [Example 103, rel-(3aR,7aR)-5-(7-(8-Ethyl-7-fluoro-3-hydroxynaphthalen-1-yl)-8-fluoro-2-(((2R,7aS)-2-fluorotetrahydro-1H-pyrrolizin-7a(5H)-yl)methoxy)pyrido[4,3-d]pyrimidin-4-yl)octahydro-3H-pyrrolo[3,4-c]pyridin-3-one]: 4 nM; `CCc1c(F)ccc2cc(O)cc(-c3ncc4c(N5CC6CCC(C(N)=O)(C6)C5)nc(OC[C@@]56CCCN5C[C@H](F)C6)nc4c3F)c12` (relative stereo) [Example 121, 3-(7-(8-Ethyl-7-fluoro-3-hydroxynaphthalen-1-yl)-8-fluoro-2-(((2R,7aS)-2-fluorotetrahydro-1H-pyrrolizin-7a(5H)-yl)methoxy)pyrido[4,3-d]pyrimidin-4-yl)-3-azabicyclo[3.2.1]octane-1-carboxamide]: 6 nM; `CCc1c(F)ccc2cc(O)cc(-c3ncc4c(N5C6CCC(C(N)=O)C5CC6)nc(OC[C@@]56CCCN5C[C@H](F)C6)nc4c3F)c12` (relative stereo) [Example 123, rac-(15,5S)-8-(7-(8-Ethyl-7-fluoro-3-hydroxynaphthalen-1-yl)-8-fluoro-2-(((2R,7aS)-2-fluorotetrahydro-1H-pyrrolizin-7a(5H)-yl)methoxy)pyrido[4,3-d]pyrimidin-4-yl)-8-azabicyclo[3.2.1]octane-2-carboxamide]: 47 nM.

Molecule `CCc1c(F)ccc2cc(O)cc(-c3ncc4c(N5CC6CC(O)C(C6)C5)nc(OC[C@@]56CCCN5C[C@H](F)C6)nc4c3F)c12` (single isomer, unassigned) [Example 25] came in with an IC50 of 11 nM.

Take `CCc1c(F)ccc2cc(O)cc(-c3ncc4c(N5CC6CC(O)C(C6)C5)nc(OC[C@@]56CCCN5C[C@H](F)C6)nc4c3F)c12` (single isomer, unassigned) [Example 26]: inhibition was half-maximal at 4 nM (IC50).

`CCC1CCCc2cc(O)cc(-c3ncc4c(N5CCC[C@@](C)(O)C5)nc(OC[C@@]56CCCN5C[C@H](F)C6)nc4c3F)c21` (single isomer, unassigned) [Example 174] came in with an IC50 of 335 nM. Next, `CCc1c(F)ccc2cc(O)cc(-c3ncc4c(N5CC6CC5CCC6O)nc(OCC56CCCN5C[C@H](F)C6)nc4c3F)c12` (stereo in doubt) [Example 155, 6-(7-(8-Ethyl-7-fluoro-3-hydroxy-naphthalen-1-yl)-8-fluoro-2-(((2R,7aS)-2-fluorotetrahydro-1H-pyrrolizin-7a(5H)-yl)methoxy)pyrido[4,3-d]pyrimidin-4-yl)-6-azabicyclo[3.2.1] octan-2-ol]: 33 nM; `CCc1c(F)ccc2cc(O)cc(-c3ncc4c(N5CCC5C(N)=O)nc(OC[C@@]56CCCN5C[C@H](F)C6)nc4c3F)c12` (stereo partly drawn) [Example 5, 1-(7-(8-Ethyl-7-fluoro-3-hydroxynaphthalen-1-yl)-8-fluoro-2-(((2R,7aS)-2-fluorotetrahydro-1H-pyrrolizin-7a(5H)-yl)methoxy)pyrido[4,3-d]pyrimidin-4-yl)azetidine-2-carboxamide]: 19 nM. Next, `CCc1c(F)ccc2cc(O)cc(-c3ncc4c(N5C[C@@H]6COC[C@@H]65)nc(OC[C@@]56CCCN5C[C@H](F)C6)nc4c3F)c12` [Example 20, 4-(4-((1S,5R)-3-Oxa-6-azabicyclo[3.2.0]heptan-6-yl)-8-fluoro-2-(((2R,7aS)-2-fluorotetrahydro-1H-pyrrolizin-7a(5H)-yl)methoxy)pyrido[4,3-d]pyrimidin-7-yl)-5-ethyl-6-fluoronaphthalen-2-ol]: 39 nM; `CCc1c(F)ccc2cc(O)cc(-c3ncc4c(N5CC(O)CC(C)(C)C5)nc(OC[C@@]56CCCN5C[C@H](F)C6)nc4c3F)c12` (some centres unmarked) [Example 32]: 9 nM; `CCc1c(F)ccc2cc(O)cc(-c3ncc4c(N5C6CCC(O)C5CC6)nc(OC[C@@]56CCCN5C[C@H](F)C6)nc4c3F)c12` (stereo partly drawn) [Example 34, 8-(7-(8-Ethyl-7-fluoro-3-hydroxynaphthalen-1-yl)-8-fluoro-2-(((2R,7aS)-2-fluorotetrahydro-1H-pyrrolizin-7a(5H)-yl)methoxy)pyrido[4,3-d]pyrimidin-4-yl)-8-azabicyclo[3.2.1]octan-2-ol 2,2,2-trifluoroacetate]: 54 nM.

In turn, `CCc1c(F)ccc2cc(O)cc(-c3ncc4c(N5CC[C@H](C)[C@@H](O)C5)nc(OC[C@@]56CCCN5C[C@H](F)C6)nc4c3F)c12` [Example 35, (3R,4S)-1-(7-(8-Ethyl-7-fluoro-3-hydroxynaphthalen-1-yl)-8-fluoro-2-(((2R,7aS)-2-fluorotetrahydro-1H-pyrrolizin-7a(5H)-yl)methoxy)pyrido[4,3-d]pyrimidin-4-yl)-4-methyl-piperidin-3-ol] had an IC50 of 25 nM. The value for `CCc1c(F)ccc2cc(O)cc(-c3ncc4c(N5CC6CCOC6C5)nc(OC[C@@]56CCCN5C[C@H](F)C6)nc4c3F)c12` (stereo partly drawn) [Example 37, 5-Ethyl-6-fluoro-4-(8-fluoro-2-(((2R,7aS)-2-fluorotetrahydro-1H-pyrrolizin-7a(5H)-yl)methoxy)-4-(hexahydro-5H-furo[2,3-c]pyrrol-5-yl)pyrido[4,3-d]pyrimidin-7-yl)naphthalen-2-ol] was 42 nM; that for `CCc1c(F)ccc2cc(O)cc(-c3ncc4c(N5CC(C(N)=O)CC(C)(C)C5)nc(OC[C@@]56CCCN5C[C@H](F)C6)nc4c3F)c12` (stereo partly drawn) [Example 43, 1-(7-(8-Ethyl-7-fluoro-3-hydroxynaphthalen-1-yl)-8-fluoro-2-(((2R,7aS)-2-fluorotetrahydro-1H-pyrrolizin-7a(5H)-yl)methoxy)pyrido[4,3-d]pyrimidin-4-yl)-5,5-dimethylpiperidine-3-carboxamide] was 4 nM; that for `C#Cc1c(F)ccc2cccc(-c3ncc4c(N5CCC[C@@](C)(O)C5)nc(OC[C@@]56CCCN5C[C@H](F)C6)nc4c3F)c12` [Example 50, (R)-1-(7-(8-Ethynyl-7-fluoronaphthalen-1-yl)-8-fluoro-2-(((2R,7aS)-2-fluorotetrahydro-1H-pyrrolizin-7a(5H)-yl)methoxy)pyrido[4,3-d]pyrimidin-4-yl)-3-methylpiperidin-3-ol] was 8 nM. Next, `CCc1c(F)ccc2cc(O)cc(-c3ncc4c(N5CC6CC(O)C5C6)nc(OC[C@@]56CCCN5C[C@H](F)C6)nc4c3F)c12` (stereo partly drawn) [Example 51, 2-(7-(8-Ethyl-7-fluoro-3-hydroxynaphthalen-1-yl)-8-fluoro-2-(((2R,7aS)-2-fluorotetrahydro-1H-pyrrolizin-7a(5H)-yl)methoxy)pyrido[4,3-d]pyrimidin-4-yl)-2-azabicyclo[2.2.1]heptan-6-ol]: 25 nM; `CCc1cccc2cc(O)cc(-c3ncc4c(N5C6CCC5C(C)(O)CC6)nc(OC[C@@]56CCCN5C[C@H](F)C6)nc4c3F)c12` (stereo partly drawn) [Example 69, 8-(7-(8-Ethyl-3-hydroxynaphthalen-1-yl)-8-fluoro-2-(((2R,7aS)-2-fluorotetrahydro-1H-pyrrolizin-7a(5H)-yl)methoxy)pyrido[4,3-d]pyrimidin-4-yl)-2-methyl-8-azabicyclo[3.2.1]octan-2-ol]: 36 nM. Next, `CCc1c(F)ccc2cc(O)cc(-c3ncc4c(N5C6CCC5C(C)(O)CC6)nc(OC[C@@]56CCCN5C[C@H](F)C6)nc4c3F)c12` (stereo partly drawn) [Example 70, 8-(7-(8-Ethyl-7-fluoro-3-hydroxynaphthalen-1-yl)-8-fluoro-2-(((2R,7aS)-2-fluorotetrahydro-1H-pyrrolizin-7a(5H)-yl)methoxy)pyrido[4,3-d]pyrimidin-4-yl)-2-methyl-8-azabicyclo[3.2.1]octan-2-ol]: 32 nM.

In general, IC50 refers to the concentration needed to halve the response being measured. The low end stands for higher potency, the high end for lower potency.
